Among the test systems are OVCAR-5; MDA-MB-231; PC-3; SK-MEL-2; SNB-19; OVCAR-3; OVCAR-8; OVCAR-4; NCI-H23; HCT-15; HOP-62; HT-29; IGROV-1; K562; NCI-H226; TK-10; Hs-578T; SF-539; UACC-257.
Holding throughout (assay): NCI-60 cell line screen, 48 h

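1) Cells in 96-well plates. 2) Compound, 48 h, 5 concentrations. 3) Linear interpolation between surrounding doses. 4) Unreached endpoint = highest concentration. GI50 = concentration required for 50% inhibition of growth.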 Active and inactive are the calls of the source. Rule as the data show it: active = GI50 up to about 1.1 µM and inactive = higher.

In the case of `CCOC(=O)c1nc2ccccc2nc1NCc1ccc(Cl)cc1Cl`, the GI50 with OVCAR-5, with MDA-MB-231, with PC-3, in the assay on SK-MEL-2, with SNB-19 and with OVCAR-3 was > 100 µM (inactive) throughout. The GI50 is > 100 µM (inactive) in the assay on OVCAR-8; > 100 µM (inactive) in the assay with OVCAR-4; > 100 µM (inactive) with NCI-H23; over 100 µM with HCT-15; > 100 µM (inactive) in the assay on HOP-62; > 100 µM (inactive) with HT-29. Also, the GI50 in the assay with IGROV-1 is > 100 µM (inactive); with K562 it was > 100 µM (inactive); in the assay with NCI-H226, > 100 µM (inactive); in the assay on TK-10 it was > 100 µM (inactive); in the assay on Hs-578T, 65.6 µM (inactive); in the assay on SF-539, > 100 µM (inactive). In addition, the GI50 in the assay on UACC-257 is > 100 µM (inactive).

Turning to `O=c1sc2c(s1)-c1sc(=O)sc1SS2`, the GI50 is 34.1 µM (inactive) in the assay with OVCAR-5; > 100 µM (inactive) in the assay with MDA-MB-231; > 100 µM (inactive) with PC-3; > 100 µM (inactive) with SK-MEL-2; > 100 µM (inactive) in the assay with SNB-19; > 100 µM (inactive) in the assay with OVCAR-3. The GI50 with OVCAR-8 was 21.6 µM (inactive); in the assay with OVCAR-4, > 100 µM (inactive); with NCI-H23, > 37.5 µM (inactive); in the assay with HCT-15 it was 18.7 µM; in the assay on HOP-62, > 100 µM (inactive); with HT-29, > 42.1 µM (inactive). Besides, the GI50 in the assay with IGROV-1 is > 96.4 µM (inactive); in the assay on K562, 55.5 µM (inactive); in the assay with NCI-H226 it was 38.6 µM (inactive); with TK-10, > 52.6 µM (inactive); in the assay with Hs-578T, 81.7 µM (inactive); in the assay with SF-539, 41.5 µM (inactive). For the same compound, the GI50 in the assay with UACC-257 was > 96.8 µM (inactive).

Regarding `COC(=O)C1=C(N)C2=C(N)Oc3ccccc3C2CC1=C(C#N)C#N` (centres undefined), the GI50 is 27.9 µM (inactive) in the assay with OVCAR-5; 17.5 µM (inactive) in the assay on MDA-MB-231; 28.1 µM (inactive) in the assay with PC-3; 25.9 µM (inactive) with SK-MEL-2; 18.6 µM (inactive) in the assay with SNB-19; 25.6 µM (inactive) in the assay on OVCAR-3. The GI50 in the assay on OVCAR-8 is 23.9 µM (inactive); in the assay with OVCAR-4, 30.2 µM (inactive); in the assay with NCI-H23 it was 19.6 µM (inactive); with HCT-15, 17.2 µM; in the assay with HOP-62, 33.5 µM (inactive); in the assay on HT-29, 26.2 µM (inactive). The GI50 in the assay with IGROV-1 is 18.4 µM (inactive); in the assay on K562 it was 19.6 µM (inactive); in the assay on NCI-H226 it was 44.3 µM (inactive); in the assay on TK-10 it was 25.6 µM (inactive); in the assay on Hs-578T, 27.9 µM (inactive); in the assay with SF-539, 43.6 µM (inactive). The GI50 with UACC-257 is 34.7 µM (inactive).

As to `O=C1Nc2ccccc2/C1=N/NC(=S)NCc1ccccn1`, the GI50 in the assay with OVCAR-5 was 10.5 µM (inactive); in the assay on MDA-MB-231, 0.0721 µM (active); in the assay with PC-3 it was 0.0508 µM (active); with SK-MEL-2 it was 2.9 µM (inactive); with SNB-19, 0.678 µM (active); in the assay on OVCAR-3 it was < 0.01 µM (active). In addition, the GI50 in the assay with OVCAR-8 is 0.346 µM (active); in the assay on OVCAR-4, 1.33 µM (inactive); in the assay on NCI-H23, 0.533 µM (active); in the assay with HCT-15, 0.0326 µM; in the assay with HOP-62, 0.483 µM (active); in the assay with HT-29, 0.0462 µM (active). Moreover, the GI50 with IGROV-1 is 0.0721 µM (active); in the assay on K562 it was < 0.01 µM (active); in the assay with NCI-H226, 0.604 µM (active); in the assay on TK-10, 2.52 µM (inactive); with Hs-578T, 6.14 µM (inactive); with SF-539, 0.366 µM (active). In addition, the GI50 with UACC-257 was 0.47 µM (active).

`Cc1ccc(-n2c(Cn3nnc(-c4cccnc4)n3)nn(C3OC(COC(=O)c4ccccc4)C(OC(=O)c4ccccc4)C3OC(=O)c3ccccc3)c2=S)cc1` (centres undefined): the GI50 in the assay with OVCAR-5 is > 100 µM (inactive); in the assay with MDA-MB-231, > 100 µM (inactive); in the assay on PC-3, > 100 µM (inactive); in the assay with SK-MEL-2, > 100 µM (inactive); in the assay on SNB-19, 32.3 µM (inactive); in the assay on OVCAR-3, > 100 µM (inactive). Besides, the GI50 in the assay with OVCAR-8 was > 100 µM (inactive); with OVCAR-4 it was > 100 µM (inactive); in the assay on NCI-H23, > 100 µM (inactive); in the assay on HCT-15 it was over 100 µM; in the assay on HOP-62, > 100 µM (inactive); in the assay with HT-29, > 100 µM (inactive). Moreover, the GI50 in the assay on IGROV-1, in the assay with K562, in the assay on NCI-H226, in the assay on TK-10, with Hs-578T and in the assay with SF-539 was > 100 µM (inactive) throughout. The GI50 in the assay on UACC-257 is > 100 µM (inactive).

For the compound `COc1cccc(CCN2CCN(CCCc3ccccc3)CC2)c1`, the GI50 with OVCAR-5 is > 100 µM (inactive); in the assay on MDA-MB-231, > 100 µM (inactive); in the assay with PC-3, > 100 µM (inactive); with SK-MEL-2, > 100 µM (inactive); in the assay with SNB-19, > 100 µM (inactive); in the assay with OVCAR-3 it was 64.6 µM (inactive). The GI50 is > 100 µM (inactive) in the assay with OVCAR-8; 51.1 µM (inactive) in the assay on OVCAR-4; 53 µM (inactive) in the assay on NCI-H23; 31.7 µM in the assay on HCT-15; 79.1 µM (inactive) with HOP-62; 31.8 µM (inactive) with HT-29. For the same compound, the GI50 was > 100 µM (inactive) in the assay on IGROV-1; 32.1 µM (inactive) with K562; 71 µM (inactive) in the assay with NCI-H226; > 100 µM (inactive) with TK-10; > 100 µM (inactive) in the assay with Hs-578T; > 100 µM (inactive) with SF-539. The GI50 in the assay on UACC-257 is > 100 µM (inactive).

For the compound `COC1=C(OC)C23CCc4ccc(OC)c(O)c4C2(CCN3)CC1=O` (centres undefined), the GI50 in the assay on OVCAR-5, with MDA-MB-231, with PC-3, in the assay on SK-MEL-2, in the assay with SNB-19 and in the assay with OVCAR-3 was > 100 µM (inactive) in each case. In addition, the GI50 in the assay on OVCAR-8 was > 100 µM (inactive); with OVCAR-4, > 100 µM (inactive); with NCI-H23, > 100 µM (inactive); with HCT-15 it was over 100 µM; with HOP-62, > 100 µM (inactive); with HT-29, > 100 µM (inactive). Besides, the GI50 with IGROV-1, in the assay with K562, in the assay on NCI-H226, in the assay on TK-10, in the assay on Hs-578T and in the assay with SF-539 was > 100 µM (inactive) in each case. Besides, the GI50 in the assay with UACC-257 was > 100 µM (inactive).

For the compound `NC(=O)c1ncn(C2OC(CO)C(O)C2O)c1NC=O` (centres undefined), the GI50 in the assay on OVCAR-5, with MDA-MB-231, with PC-3, with SK-MEL-2, in the assay with SNB-19 and in the assay with OVCAR-3 was > 100 µM (inactive) throughout. In addition, the GI50 is > 100 µM (inactive) in the assay with OVCAR-8; > 100 µM (inactive) with OVCAR-4; > 100 µM (inactive) with NCI-H23; over 100 µM with HCT-15; > 100 µM (inactive) with HOP-62; > 100 µM (inactive) in the assay on HT-29. The GI50 with IGROV-1, in the assay on K562, in the assay on NCI-H226, with TK-10, in the assay on Hs-578T and in the assay on SF-539 was > 100 µM (inactive) each time. Moreover, the GI50 in the assay on UACC-257 was > 100 µM (inactive).

With `C[N+](C)(C)C(Cc1c[nH]c(=S)[nH]1)C(=O)O` (centres undefined), the GI50 with OVCAR-5, in the assay with MDA-MB-231, in the assay on PC-3, in the assay on SK-MEL-2, with SNB-19 and with OVCAR-3 was > 100 µM (inactive) in each case. Besides, the GI50 in the assay on OVCAR-8 was > 100 µM (inactive); in the assay with OVCAR-4 it was > 100 µM (inactive); with NCI-H23, > 100 µM (inactive); with HCT-15, over 100 µM; with HOP-62 it was > 100 µM (inactive); in the assay with HT-29 it was > 100 µM (inactive). Moreover, the GI50 with IGROV-1, in the assay with K562, in the assay on NCI-H226, with TK-10, with Hs-578T and in the assay with SF-539 was > 100 µM (inactive) in each case. In addition, the GI50 with UACC-257 was > 100 µM (inactive).

In the case of `O=C(O)C(F)(OC(F)(F)C(F)(F)C(F)(F)F)C(F)(F)F` (centres undefined), the GI50 in the assay with OVCAR-5, in the assay on MDA-MB-231, with PC-3, in the assay with SK-MEL-2, in the assay on SNB-19 and in the assay on OVCAR-3 was > 100 µM (inactive) in each case. Besides, the GI50 in the assay on OVCAR-8 was > 100 µM (inactive); in the assay on OVCAR-4 it was > 100 µM (inactive); in the assay with NCI-H23 it was > 100 µM (inactive); in the assay with HCT-15, over 100 µM; in the assay with HOP-62, > 100 µM (inactive); in the assay with HT-29, > 100 µM (inactive). The GI50 in the assay on IGROV-1, with K562, in the assay with NCI-H226, in the assay with TK-10, in the assay on Hs-578T and in the assay with SF-539 was > 100 µM (inactive) in each case. In the assay with UACC-257, the GI50 is > 100 µM (inactive).

As for `O=[N+]([O-])c1ccc(C(Nc2ccccc2)c2ccc3cccnc3c2O)cc1` (centres undefined), the GI50 with OVCAR-5 was 8.2 µM (inactive); in the assay on MDA-MB-231, 16.2 µM (inactive); in the assay on PC-3 it was 10.8 µM (inactive); with SK-MEL-2 it was 24.3 µM (inactive); in the assay on SNB-19, 7.74 µM (inactive); in the assay with OVCAR-3 it was 4.02 µM (inactive). Also, the GI50 with OVCAR-8 was 3.85 µM (inactive); in the assay on OVCAR-4 it was 5.69 µM (inactive); with NCI-H23, 11.5 µM (inactive); in the assay on HCT-15, 4.26 µM; in the assay on HOP-62, 7.48 µM (inactive); in the assay on HT-29, 7.08 µM (inactive). In addition, the GI50 in the assay on IGROV-1 was 10.6 µM (inactive); in the assay with K562, 12.6 µM (inactive); in the assay on NCI-H226 it was 3.78 µM (inactive); in the assay on TK-10, 8.49 µM (inactive); with Hs-578T, 19.6 µM (inactive); in the assay on SF-539 it was 3.72 µM (inactive). Also, in the assay on UACC-257, the GI50 is 13.8 µM (inactive).

The values are drawn from ChEMBL document CHEMBL1201862, “PubChem BioAssay data set” (2004).
